Measurements reported in patent publication US11649458B2, “Inhibiting angiotensinogen to attenuate aortic pathology in Marfan syndrome” (UNIVERSITY OF KENTUCKY RESEARCH FOUNDATION, priority 2020, dated 2023).

Key:
[1] = system: patients with Marfan syndrome; details: male less than 16 years old, female less than 15; losartan p=0.002, atenolol p<0.001; cited from earlier work
[2] = system: FBN1 mgR/mgR mice; assay: Survival and ascending aortic diameter in FBN1 mgR/mgR mice with established aortic dilation infused with enalapril or losartan by osmotic mini pump; format: in vivo; details: for survival after 12 weeks versus PBS: mini pump from 6 weeks of age
Description: Male and female fibrillin-1 hypomorphic (FBN1 mgR/mgR) mice (n=10-12/group) were stratified into treatment groups by aortic diameter at 6 weeks of age to ensure an equivalent average aortic diameter in each group at the start of the study. Osmotic mini pumps filled with PBS (vehicle), enalapril (2 mg/kg/d), or losartan (20 mg/kg/d) were implanted subcutaneously into mice after stratification. Mini pumps infusing drug or vehicle were replaced every 4 weeks for a total duration of 12 weeks. Wild type littermates (n=10) were infused with PBS as a negative control to the Marfan mouse model. Ascending aortic diameters from male and female FBN1 mgR/mgR mice and their wild type littermates were assessed by ultrasound every 4 weeks from 6 to 18 weeks of age. Aortic diameters were measured luminal edge to luminal edge during diastole.

[3] = system: individuals with Marfan syndrome; details: cited from earlier work
[4] = system: Fbn1^mgR/mgR mice; assay: Survival of Fbn1^mgR/mgR mice given losartan in drinking water starting at P24 or P50; format: in vivo; details: for survival compared to Fbn1^mgR/mgR mice receiving no drug, survival analysis starting at P50: p=0.017
Source text: Male (n=40) and female (n=28) Fbn1^mgR/mgR mice were randomized to receive losartan in drinking water (0.6 g/L) starting at either postnatal day 24 (P24) or 50 (P50). Data derived from these mice was compared to littermate Fbn1^mgR/mgR (20 males, 14 females) and wild type (15 males, 15 females) mice that were given vehicle only. All mice were terminated at 20 weeks of age. Mice that died during the study were necropsied to determine cause of death.

[5] = system: mouse models of TAA; details: cited from earlier work
[6] = system: patients with Marfan syndrome; details: median follow-up 8 years; control group 5; p=0.14; cited from earlier work
[7] = system: male FBN1^mgR/mgR (mgR) mice; assay: Losartan withdrawal in male FBN1^mgR/mgR mice, death by aortic rupture; format: in vivo
Source text: Withdrawal of losartan during late adolescence (52 days of age) was followed by 6/10 mice dying by aortic rupture within 4 weeks (shaded area). (*=p<0.05. Censored data include humane endpoints and non-rupture events.)

[8] = female mgR mice, PBS=1.92+/-0.13, p=0.86, no significant difference
[9] = male mgR mice, PBS=2.69+/-0.19 mm, p=0.24, no significant difference

CC(C)NCC(O)COc1ccc(CC(N)=O)cc1 (stereo not drawn) [atenolol]
change in aortic-root z scores over time with younger age of initiation [1]: greater decrease

CCOC(=O)[C@H](CCc1ccccc1)N[C@@H](C)C(=O)N1CCC[C@H]1C(=O)O [enalapril]
survival after 12 weeks versus PBS ([2]; female mgR mice, p=0.094): no significant difference
maximum ascending aortic diameter after treatment for 12 weeks [2, 8]: 1.89+/−0.31
survival after 12 weeks versus PBS ([2]; male mgR mice, p=0.224): no significant difference
maximum ascending aortic diameter after treatment for 12 weeks [2, 9]: 2.04+/−0.27 mm

CCCCC1=NC2(CCCC2)C(=O)N1Cc1ccc(-c2ccccc2-c2nnn[nH]2)cc1 [irbesartan]
aortic root expansion [3]: significantly attenuated

CCCCc1nc(Cl)c(CO)n1Cc1ccc(-c2ccccc2-c2nn[nH]n2)cc1 [losartan]
efficacy when administered after significant thoracic aortic dilation has already occurred ([2]; FBN1^mgR/mgR mice): not effective
survival after 12 weeks versus PBS ([2]; female mgR mice, p=0.094): no significant difference
maximum ascending aortic diameter after treatment for 12 weeks [2, 8]: 1.98+/−0.17
survival after 12 weeks versus PBS ([2]; male mgR mice, p=0.224): no significant difference
maximum ascending aortic diameter after treatment for 12 weeks [2, 9]: 2.42+/−0.28 mm
survival benefit in female mice ([4]; female Fbn1^mgR/mgR mice, survival not different from wild type females): not possible to detect a survival benefit
survival compared to Fbn1^mgR/mgR males receiving no drug ([4]; males, losartan 0.6 g/L drinking water from P24, p<0.001, log-rank): increased
survival compared to wild type male mice ([4]; males, losartan from P24, p=0.138): not different
survival compared to wild type mice ([4]; males, losartan from P50, p=0.002): decreased
survival compared to Fbn1^mgR/mgR mice receiving no drug, survival analysis starting at P50 ([4]; males, losartan from P50): increased survival
survival compared to Fbn1^mgR/mgR mice receiving no drug, survival analysis starting at P50 ([4]; males, losartan from P50, listed as Losartan): improves survival
survival compared to Fbn1^mgR/mgR males receiving no drug ([4]; males, losartan from P50, p=0.194): not different
aortic root expansion in Fbn1^C1041G/+ mice ([5]; literature ref 9): decrease aortic root expansion
aortic expansion in other mouse models of TAA ([5]; literature refs 6-11): reduces aortic expansion
number of deaths [6]: 0
mortality due to aortic rupture compared to mgR controls ([7]; male mgR mice, losartan in drinking water from 24 days of age, p<0.05): protected from mortality
mice dying by aortic rupture within 4 weeks of losartan withdrawal ([7]; withdrawal at 52 days of age): 6/10
change in aortic-root z scores over time with younger age of initiation [1]: greater decrease
